Experimental data: US12551541B2, “Albumin bound macromolecule tri-agonist activating GLP 1/GIP/glucagon receptors and methods therefor” (AlbuNext, LLC, priority 2023, dated 2026)

Assays:
[1] = in vivo; cited from earlier work
GLP-1 receptor = GLP-1 receptor (Homo sapiens, UniProt P43220); conditions: cited from earlier work
[2] = monotherapy, cited from earlier work
[3] = 0.16 pmol/kg per minute; cited from earlier work
[4] = tested on: DIO (diet induced obesity) mice; assay: DIO (diet induced obesity) mice, single subcutaneous injection, NASH; assay type: in vivo; conditions: single dosage of 100 nmol/kg, over 26 days
Experimental: In still further experiments to confirm that contemplated compounds presented herein are also effective as modulators for hepatic metabolism, and particularly in the treatment and even at least partial reversion of NASH (non-alcoholic […]), the inventors tested selected compounds in DIO (diet induced obesity) mice. […] The body weight of all treated animals was recorded over 26 days, and average body weight over time for 16 and 26 days are shown in FIG. 34A and FIG. 34B, respectively.
To investigate liver function and metabolism, liver weight was determined at the end of the study and results are shown in FIG. 38. […] In addition, liver function was assessed at the end of the study by testing AST (aspartate aminotransferase) and ALT (alanine transaminase).
In still further tests for hepatic metabolic modulation, the inventors also determined total cholesterol and LDL cholesterol at the end of the study, and exemplary results are shown in FIG. 41 (for total cholesterol) and FIG. 42 (for LDL cholesterol). […] As diet induced obesity is also often associated with inflammation, the inventors also measured levels of selected pro-inflammatory cytokines. Here, IL-1α and IL-6 levels were determined at the end of the study.

GLP-1 receptor, sequence (P43220 24-463, species assumed): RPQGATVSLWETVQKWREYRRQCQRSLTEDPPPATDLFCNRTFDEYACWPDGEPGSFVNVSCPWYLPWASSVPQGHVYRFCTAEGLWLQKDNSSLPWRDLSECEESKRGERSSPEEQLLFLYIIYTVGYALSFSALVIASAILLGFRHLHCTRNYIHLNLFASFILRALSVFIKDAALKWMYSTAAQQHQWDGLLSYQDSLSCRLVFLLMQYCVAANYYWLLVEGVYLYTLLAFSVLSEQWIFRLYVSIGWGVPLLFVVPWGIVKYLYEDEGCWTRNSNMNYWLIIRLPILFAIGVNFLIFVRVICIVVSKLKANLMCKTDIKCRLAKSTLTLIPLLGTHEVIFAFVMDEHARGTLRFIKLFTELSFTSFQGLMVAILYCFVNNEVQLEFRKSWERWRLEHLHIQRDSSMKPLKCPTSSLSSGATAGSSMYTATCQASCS

albiglutide
half-life [1]: 140 to 190 h | GLP-1 receptor affinity (GLP-1 receptor): 20 nM | decrease in HbA1c from baseline ([2]; 30 mg weekly dose, week 52): −0.7% | change from baseline of HbA1c ([2]; 50 mg weekly dose): −0.9%

GLP-1: naturally occurring hormone released by L cells in the lower intestine
adverse events [3]: vomiting within eight minutes

semaglutide [reference compound]
body weight [4]: effective in reduction of body weight
